Measurements published in US20240009170A1, “INHIBITION OF GLYCOGEN SYNTHASE KINASE-3 (GSK-3)” (Brown University, priority 2020, published 2024).
Where two headings read alike, the source gives them in different places.

Tests used:
TALL-104 = assay: Flow cytometric analysis of cell surface markers, TALL-104; format: cell-based, Human; settings: compared to DMSO treatment alone
Method: (§1) FIG. 12 is a set of bar graphs showing flow cytometric analyses of cell surface markers of tumor and immune cells treated with 9-ING-41 in vitro. FIG. 12(A) HCT-116, FIG. 12(B) HT-29, FIG. 12(C) TALL-104, and FIG. 12(D) NK-92 cells were treated with indicated concentrations of 9-ING-41 for forty-eight hours, stained for indicated cell surface marker expression, and analyzed with a BD LSRII. Statistical significance was determined using two-tailed unpaired T tests.
(§2) To further understand the differential 9-ING-41-mediated impacts on protein expression, the inventors treated tumor and immune cells in vitro with 9-ING-41, then performed a flow cytometric analysis for expression of cell surface markers. […] A similar trend occurred in HT-29 cells, although not statistically significant. […] FIG. 10(C). […] FIG. 10(D).

pulmonary fibrosis = settings: cited from earlier work
HT-29 = assay: Flow cytometric analysis of cell surface markers, HT-29; format: cell-based, Human; settings: post-treatment, 48 hours
Method: as §1, §2

[1] = system: healthy donor-derived CD8+ T cells; assay: Cytokine profile of immune cell culture supernatant, donor-derived CD8+ T cells; format: cell-based, Human; settings: 1 μM, 48 hours
Method: Isolation of donor derived CD8+ T cells. An Easy Step Human CD8+ T Cell Isolation Kit was used to isolated CD8+ T cells from a donor PBMC sample via negative selection (Cat #, 17913, Stem Cell Technologies, Vancouver, Canada).
Collection of cell culture supernatants used in cytokine measurements. Cells were plated at 3.5×10^4 cells in a 48-well plate (Thermo Fisher Scientific, Waltham, MA, USA) in complete medium and incubated at 37° C. with 5% CO2. At twenty-four hours after plating, almost all the tumor cells were adherent to the bottom of the flask and the complete medium was replaced with drug-containing medium. Subsequently, the culture supernatants were collected after forty-eight hours of incubation and were frozen at −80° C. until the measurement of cytokines was performed. The day of analysis, samples were thawed and centrifuged to remove cellular debris.
Human cytokine profiling. Human cell line culture supernatants were analyzed using an R&D systems Human Premixed Multi-Analyte Kit (R&D Systems, Inc., Minneapolis, MN, USA) and a Luminex 200 Instrument (LX200-XPON-RUO, Luminex Corporation, Austin, TX, USA) according to the manufacturer's instructions. […]
9-ING-41 increases secreted cytotoxic proteins IFN-v, Granzyme B, and TRAIL in immune cells. […] Here, the inventors determined how 9-ING-41 treatment impacts the immune cell cytokinome. […]

NK-92 = assay: Flow cytometric analysis of cell surface markers, NK-92; format: cell-based, Human; settings: 48 hours
Method: as §1, §2

[2] = system: HCT-116 colorectal cancer cells; assay: Co-culture of HCT-116 and TALL-104 cells with or without αPD-1 therapy; format: cell-based, Human; settings: compared with the other culture conditions
Method: Immune cell co-culture experiments. Co-culture experiments were conducted with GFP+ SW480 or HCT-116 colorectal cancer cells and either NK-92 natural killer cells or TALL-104 T cells in a 48-well plate, in the presence or absence of 9-ING-41. HCT-116 cells were labeled using CellTracker™ Green CMFDA (5-chloromethylfluorescein diacetate), immune cells (NK-92, TALL-104) were labeled using CellTracker™ Blue CMAC Dye (7-amino-4-chloromethylcoumarin), and ethidium homodimer-1 (EthD-1) was used as a marker of cell death (Invitrogen, Thermo Fisher Scientific, Waltham, MA, USA).
9-ING-41 increases tumor cell death in combination with αPD-1 therapy in a co-culture of HCT-116 colorectal cancer cells and immune cells. The inventors were interested in the applicability of GS3K-3 inhibitors such as 9-ING-41 in combination with immune checkpoint blockade. The inventors next performed co-cultures of immune cells (TALL-104, NK-92) and tumor cells (HCT-116) in the presence or absence of 9-ING-41, as well as either pembrolizumab® or nivolumab®, two humanized monoclonal antibodies against PD-1. The inventors evaluated HCT-116 cells in this co-culture model to determine if the 9-ING-41-mediated increase in immune cell-mediated SW480 cell killing could be reproduced in another colorectal cancer cell line.

Cn1cc(C2=C(c3coc4ccc(F)cc34)C(=O)NC2=O)c2cc3c(cc21)OCO3 [9-ING-41]
TRAIL expression (TALL-104): significant decreased | pulmonary fibrosis and pulmonary function (pulmonary fibrosis; models of TGF-β): reduced pulmonary fibrosis and improved pulmonary function | pulmonary fibrosis and pulmonary function (pulmonary fibrosis; models of bleomycin pulmonary fibrosis): reduced pulmonary fibrosis and improved pulmonary function | HLA-E and PD-L1 surface expression (HT-29): statistically significant increase | all three cytotoxic molecules (IFN-γ, granzyme B, TRAIL) [1]: increases | TRAIL and LAG3 surface expression (NK-92): increases | checkpoint molecule NKG2A surface expression (NK-92): statistically significant decreases | cell death after twenty-four hours of co-culture with TALL-104 [2]: even greater amount of cell death
